Our source for the Ki values is ChEMBL document CHEMBL3864136, “A monocyclic neodysiherbaine analog: Synthesis and evaluation” (Bioorg Med Chem Lett, 2016).

Experiment [1] addresses Glutamate receptor ionotropic, kainate 2 (Homo sapiens, UniProt Q13002). As to the kind of experiment: Displacement of [3H]kianic acid from recombinant GluK2 kainate receptor (unknown origin) expressed in HEK293 cell membranes measured after 1 hr. Background: In a radioligand displacement assay an active substance lowers the binding of a labelled ligand.
The target of experiment [2] is Glutamate receptor ionotropic, kainate 1 (Homo sapiens, UniProt P39086). As to the kind of experiment: Displacement of [3H]kianic acid from recombinant GluK1 kainate receptor (unknown origin) expressed in HEK293 cell membranes measured after 1 hr.
Sequence of Glutamate receptor ionotropic, kainate 1 (P39086 whole entry): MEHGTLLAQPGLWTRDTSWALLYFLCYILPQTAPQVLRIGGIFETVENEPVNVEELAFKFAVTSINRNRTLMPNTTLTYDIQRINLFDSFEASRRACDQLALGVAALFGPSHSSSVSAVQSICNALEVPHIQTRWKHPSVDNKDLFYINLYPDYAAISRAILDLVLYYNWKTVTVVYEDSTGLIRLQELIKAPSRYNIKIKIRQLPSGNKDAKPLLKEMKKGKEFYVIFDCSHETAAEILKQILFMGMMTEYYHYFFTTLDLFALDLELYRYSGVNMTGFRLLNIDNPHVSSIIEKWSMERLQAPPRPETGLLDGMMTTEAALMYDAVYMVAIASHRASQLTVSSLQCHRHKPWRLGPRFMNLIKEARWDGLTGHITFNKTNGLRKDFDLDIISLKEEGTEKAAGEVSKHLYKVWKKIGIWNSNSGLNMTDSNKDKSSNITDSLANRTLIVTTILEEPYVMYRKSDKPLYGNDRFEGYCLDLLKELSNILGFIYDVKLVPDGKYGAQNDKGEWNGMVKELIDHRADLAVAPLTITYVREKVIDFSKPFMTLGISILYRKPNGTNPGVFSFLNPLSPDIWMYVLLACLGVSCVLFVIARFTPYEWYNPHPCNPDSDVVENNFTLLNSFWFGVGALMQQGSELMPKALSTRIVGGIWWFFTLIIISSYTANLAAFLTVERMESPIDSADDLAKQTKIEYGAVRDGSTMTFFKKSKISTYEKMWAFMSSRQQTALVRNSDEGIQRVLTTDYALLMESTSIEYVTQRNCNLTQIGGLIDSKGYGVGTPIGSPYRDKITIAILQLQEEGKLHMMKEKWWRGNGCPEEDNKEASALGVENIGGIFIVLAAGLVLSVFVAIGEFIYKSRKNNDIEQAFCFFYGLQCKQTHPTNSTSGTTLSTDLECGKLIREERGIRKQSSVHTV

Sequence of Glutamate receptor ionotropic, kainate 2 (Q13002 whole entry): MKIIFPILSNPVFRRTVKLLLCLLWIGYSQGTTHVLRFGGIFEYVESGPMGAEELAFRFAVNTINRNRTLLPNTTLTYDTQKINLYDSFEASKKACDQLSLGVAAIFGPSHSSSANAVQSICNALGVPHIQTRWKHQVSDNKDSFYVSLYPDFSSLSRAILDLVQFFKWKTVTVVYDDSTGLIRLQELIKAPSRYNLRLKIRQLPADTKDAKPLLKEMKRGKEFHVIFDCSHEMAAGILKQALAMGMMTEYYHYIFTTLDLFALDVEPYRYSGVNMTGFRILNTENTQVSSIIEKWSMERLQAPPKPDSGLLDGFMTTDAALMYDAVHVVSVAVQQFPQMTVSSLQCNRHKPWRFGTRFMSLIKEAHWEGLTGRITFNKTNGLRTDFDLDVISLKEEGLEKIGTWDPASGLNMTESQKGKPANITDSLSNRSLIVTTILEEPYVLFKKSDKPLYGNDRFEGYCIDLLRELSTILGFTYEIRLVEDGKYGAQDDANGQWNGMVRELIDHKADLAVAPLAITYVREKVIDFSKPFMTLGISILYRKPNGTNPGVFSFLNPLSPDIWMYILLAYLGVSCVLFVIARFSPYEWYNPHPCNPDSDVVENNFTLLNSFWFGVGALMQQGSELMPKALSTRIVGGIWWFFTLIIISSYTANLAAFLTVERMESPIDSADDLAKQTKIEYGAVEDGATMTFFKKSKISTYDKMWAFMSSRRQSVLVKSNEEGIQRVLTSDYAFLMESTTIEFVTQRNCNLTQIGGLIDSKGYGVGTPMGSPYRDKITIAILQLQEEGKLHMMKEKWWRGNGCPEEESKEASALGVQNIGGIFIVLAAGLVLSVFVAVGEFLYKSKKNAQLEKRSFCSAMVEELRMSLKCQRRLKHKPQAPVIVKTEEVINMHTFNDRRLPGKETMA

As usually defined, the Ki is a measure of affinity in units of concentration, obtained from inhibition or displacement. With `CN[C@H]1[C@H]2O[C@@](C[C@H](N)C(=O)O)(C(=O)O)C[C@H]2OC[C@H]1O` [DYSIHERBAINE], the Ki is 1.2 nM in experiment [1] and 0.74 nM in experiment [2].
